The structures appear in SMILES notation. pEC50: −log10 of the molar value.

Our source for the EC50 values is patent publication US20250243171A1, “QUINAZOLINE COMPOUNDS FOR TREATMENT OF DISEASE” (Arthrosi Therapeutics, Inc., priority 2021, published 2025).

What all share (test): EC50 assay: Ba/F3 stable cell proliferation (CCK-8, 72 h)
Format in all cases: cell-based

Assay [1] has as its target T1, Ba/F3 stable cells (Homo sapiens, UniProt P00533, INS763FQEA, cells depend on it).
T1 construct: EC50 Ba/F3-EGFR A763-Y764insFQEA; other: Ba/F3-EGFR A763-Y764insFQEA cells, 72 h, CCK-8
Particulars: Ba/F3-EGFR A763-Y764insFQEA cells. In short, it runs like this: (§1)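 Ba/F3 stable cells were seeded at 4,000 cells/90 μL/well in 96-well plates and held 2 h at 37° C. in 5% CO2, then given 10 μL of serially titrated compound (0.1% DMSO final). After 72 h at 37° C., CCK-8 reagent was added for 4 hours and absorbance read at 450 nm to derive EC50.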

In assay [2] the target is T2, Ba/F3 stable cells (Homo sapiens, UniProt P00533, T790M/L858R, cells depend on it).
T2 construct: EC50 Ba/F3-EGFR L858R-T790M; other: Ba/F3-EGFR L858R-T790M cells, 72 h, CCK-8
T2 sequence (P00533 whole entry T790M/L858R): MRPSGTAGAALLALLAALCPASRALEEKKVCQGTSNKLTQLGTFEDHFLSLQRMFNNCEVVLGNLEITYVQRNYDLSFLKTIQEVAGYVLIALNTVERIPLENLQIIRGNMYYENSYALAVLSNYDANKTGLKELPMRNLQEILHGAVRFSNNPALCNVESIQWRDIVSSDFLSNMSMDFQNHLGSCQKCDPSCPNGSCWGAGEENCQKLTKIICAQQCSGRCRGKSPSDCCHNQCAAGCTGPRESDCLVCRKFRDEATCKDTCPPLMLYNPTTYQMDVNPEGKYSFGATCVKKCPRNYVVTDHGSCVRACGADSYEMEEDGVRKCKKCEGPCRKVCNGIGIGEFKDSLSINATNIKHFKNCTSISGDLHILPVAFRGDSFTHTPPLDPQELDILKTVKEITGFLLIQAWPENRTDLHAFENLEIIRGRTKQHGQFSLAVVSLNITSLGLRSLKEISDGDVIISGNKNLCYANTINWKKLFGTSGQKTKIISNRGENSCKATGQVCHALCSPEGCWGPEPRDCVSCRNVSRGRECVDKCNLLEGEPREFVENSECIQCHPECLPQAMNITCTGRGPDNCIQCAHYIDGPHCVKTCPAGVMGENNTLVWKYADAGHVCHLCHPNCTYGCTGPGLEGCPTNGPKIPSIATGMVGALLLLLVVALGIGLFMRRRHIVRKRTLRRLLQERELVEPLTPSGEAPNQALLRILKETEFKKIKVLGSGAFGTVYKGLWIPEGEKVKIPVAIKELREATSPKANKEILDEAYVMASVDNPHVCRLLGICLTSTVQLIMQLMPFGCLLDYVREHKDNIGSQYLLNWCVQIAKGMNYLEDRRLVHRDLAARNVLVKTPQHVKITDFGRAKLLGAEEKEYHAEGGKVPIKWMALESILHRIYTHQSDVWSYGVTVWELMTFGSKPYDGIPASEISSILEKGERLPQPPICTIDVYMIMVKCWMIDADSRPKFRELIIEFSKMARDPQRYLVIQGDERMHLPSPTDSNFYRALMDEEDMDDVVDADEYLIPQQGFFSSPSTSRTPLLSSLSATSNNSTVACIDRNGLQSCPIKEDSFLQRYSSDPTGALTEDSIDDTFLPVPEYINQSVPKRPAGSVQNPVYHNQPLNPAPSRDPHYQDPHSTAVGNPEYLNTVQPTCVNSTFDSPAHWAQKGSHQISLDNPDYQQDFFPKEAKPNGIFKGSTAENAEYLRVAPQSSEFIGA
To be noted: Ba/F3-EGFR L858R-T790M cells. In short, it runs like this:
as §1

For assay [3], the target named is T3, Ba/F3 stable cells (Homo sapiens, UniProt P00533, DUP767-769, cells depend on it).
T3 construct: EC50 Ba/F3-EGFR V769-D770insASV; other: Ba/F3-EGFR V769-D770insASV cells, 72 h, CCK-8
T3 sequence (P00533 with tags, fused parts or gaps DUP767-769): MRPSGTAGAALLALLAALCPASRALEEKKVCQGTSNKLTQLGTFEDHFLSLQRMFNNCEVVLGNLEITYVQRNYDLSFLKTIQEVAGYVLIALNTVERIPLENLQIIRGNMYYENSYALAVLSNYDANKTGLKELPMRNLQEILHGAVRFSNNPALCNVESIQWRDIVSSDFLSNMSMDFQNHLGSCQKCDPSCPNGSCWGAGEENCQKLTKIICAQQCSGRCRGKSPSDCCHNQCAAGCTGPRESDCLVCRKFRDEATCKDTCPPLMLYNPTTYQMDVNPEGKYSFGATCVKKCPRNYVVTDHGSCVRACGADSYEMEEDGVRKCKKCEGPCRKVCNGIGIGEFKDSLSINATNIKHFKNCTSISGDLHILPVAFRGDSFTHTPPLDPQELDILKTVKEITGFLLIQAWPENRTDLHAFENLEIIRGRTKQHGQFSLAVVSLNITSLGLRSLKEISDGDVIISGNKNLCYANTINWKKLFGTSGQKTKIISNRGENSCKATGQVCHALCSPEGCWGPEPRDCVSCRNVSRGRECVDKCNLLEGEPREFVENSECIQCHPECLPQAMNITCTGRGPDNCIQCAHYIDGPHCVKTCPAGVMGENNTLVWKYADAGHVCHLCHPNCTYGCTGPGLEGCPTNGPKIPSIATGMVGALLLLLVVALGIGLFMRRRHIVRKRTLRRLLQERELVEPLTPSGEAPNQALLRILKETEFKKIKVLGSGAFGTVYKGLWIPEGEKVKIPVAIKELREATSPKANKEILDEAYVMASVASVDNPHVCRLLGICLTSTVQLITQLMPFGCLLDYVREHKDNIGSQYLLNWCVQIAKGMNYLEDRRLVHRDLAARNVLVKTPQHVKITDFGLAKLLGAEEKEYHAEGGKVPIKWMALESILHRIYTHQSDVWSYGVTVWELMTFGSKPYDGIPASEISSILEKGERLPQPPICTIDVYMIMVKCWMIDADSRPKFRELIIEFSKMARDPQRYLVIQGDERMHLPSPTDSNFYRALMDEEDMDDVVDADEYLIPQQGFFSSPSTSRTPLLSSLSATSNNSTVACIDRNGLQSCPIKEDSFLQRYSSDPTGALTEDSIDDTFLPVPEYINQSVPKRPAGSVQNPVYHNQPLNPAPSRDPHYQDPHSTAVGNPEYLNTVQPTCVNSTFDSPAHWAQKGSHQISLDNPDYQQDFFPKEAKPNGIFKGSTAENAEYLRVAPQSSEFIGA
Particulars: Ba/F3-EGFR V769-D770insASV cells. In a few lines:
as §1

The target in assay [4] is T4, Ba/F3 stable cells (Homo sapiens, UniProt P00533, DUP771-773, cells depend on it).
T4 construct: EC50 Ba/F3-EGFR H773-V774insNPH; other: Ba/F3-EGFR H773-V774insNPH cells, 72 h, CCK-8
Particulars: Ba/F3-EGFR H773-V774insNPH cells. In short, it runs like this:
as §1

Assay [5] has as its target T5, Ba/F3 stable cells (Homo sapiens, UniProt P00533, DUP768-770, cells depend on it).
T5 construct: EC50 Ba/F3-EGFR D770-N771insSVD; other: Ba/F3-EGFR D770-N771insSVD cells, 72 h, CCK-8
Particulars: Ba/F3-EGFR D770-N771insSVD cells. In short, it runs like this: as §1

The target in assay [6] is T6, Ba/F3 stable cells (Homo sapiens, UniProt P04626, DUP772-775, cells depend on it).
T6 construct: EC50 Ba/F3-HER2 A775-G776insYVMA; other: Ba/F3-HER2 A775-G776insYVMA cells, 72 h, CCK-8
T6 sequence (P04626 with tags, fused parts or gaps DUP772-775): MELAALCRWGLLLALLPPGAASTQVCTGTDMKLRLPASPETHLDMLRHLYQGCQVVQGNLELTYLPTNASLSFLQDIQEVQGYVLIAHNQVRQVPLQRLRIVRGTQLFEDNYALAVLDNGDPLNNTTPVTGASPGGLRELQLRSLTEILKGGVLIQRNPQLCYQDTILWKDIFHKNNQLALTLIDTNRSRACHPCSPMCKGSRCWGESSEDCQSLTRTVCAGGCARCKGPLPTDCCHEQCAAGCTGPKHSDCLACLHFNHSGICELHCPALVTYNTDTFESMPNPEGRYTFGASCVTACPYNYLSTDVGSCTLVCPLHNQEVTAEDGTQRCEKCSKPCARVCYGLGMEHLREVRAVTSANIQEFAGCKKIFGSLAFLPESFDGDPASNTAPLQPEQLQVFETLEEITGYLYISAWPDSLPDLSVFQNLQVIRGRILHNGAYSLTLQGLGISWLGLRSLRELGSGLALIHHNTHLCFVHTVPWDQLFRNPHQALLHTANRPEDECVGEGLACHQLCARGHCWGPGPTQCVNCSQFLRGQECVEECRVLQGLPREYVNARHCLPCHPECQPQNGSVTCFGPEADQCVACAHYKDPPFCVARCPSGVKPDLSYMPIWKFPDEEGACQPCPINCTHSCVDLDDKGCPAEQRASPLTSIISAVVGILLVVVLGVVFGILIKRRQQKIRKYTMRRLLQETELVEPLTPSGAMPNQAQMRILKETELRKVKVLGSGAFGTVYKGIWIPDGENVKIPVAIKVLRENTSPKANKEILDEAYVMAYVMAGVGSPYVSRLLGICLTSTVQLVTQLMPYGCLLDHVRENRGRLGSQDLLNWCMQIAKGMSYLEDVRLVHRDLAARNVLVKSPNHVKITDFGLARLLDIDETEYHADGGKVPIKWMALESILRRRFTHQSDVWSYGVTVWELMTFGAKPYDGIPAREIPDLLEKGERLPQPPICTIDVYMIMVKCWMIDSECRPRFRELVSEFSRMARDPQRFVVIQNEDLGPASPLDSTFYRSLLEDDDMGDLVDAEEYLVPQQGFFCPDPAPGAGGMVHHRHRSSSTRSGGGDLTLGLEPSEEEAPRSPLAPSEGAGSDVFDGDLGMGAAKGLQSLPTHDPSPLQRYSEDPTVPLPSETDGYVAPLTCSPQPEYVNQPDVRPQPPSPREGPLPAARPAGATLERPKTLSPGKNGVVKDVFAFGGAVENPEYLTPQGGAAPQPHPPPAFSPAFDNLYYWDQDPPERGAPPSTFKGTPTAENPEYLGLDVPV
Particulars: Ba/F3-HER2 A775-G776insYVMA cells. In a few lines:
as §1

T5 sequence (P00533 with tags, fused parts or gaps DUP768-770): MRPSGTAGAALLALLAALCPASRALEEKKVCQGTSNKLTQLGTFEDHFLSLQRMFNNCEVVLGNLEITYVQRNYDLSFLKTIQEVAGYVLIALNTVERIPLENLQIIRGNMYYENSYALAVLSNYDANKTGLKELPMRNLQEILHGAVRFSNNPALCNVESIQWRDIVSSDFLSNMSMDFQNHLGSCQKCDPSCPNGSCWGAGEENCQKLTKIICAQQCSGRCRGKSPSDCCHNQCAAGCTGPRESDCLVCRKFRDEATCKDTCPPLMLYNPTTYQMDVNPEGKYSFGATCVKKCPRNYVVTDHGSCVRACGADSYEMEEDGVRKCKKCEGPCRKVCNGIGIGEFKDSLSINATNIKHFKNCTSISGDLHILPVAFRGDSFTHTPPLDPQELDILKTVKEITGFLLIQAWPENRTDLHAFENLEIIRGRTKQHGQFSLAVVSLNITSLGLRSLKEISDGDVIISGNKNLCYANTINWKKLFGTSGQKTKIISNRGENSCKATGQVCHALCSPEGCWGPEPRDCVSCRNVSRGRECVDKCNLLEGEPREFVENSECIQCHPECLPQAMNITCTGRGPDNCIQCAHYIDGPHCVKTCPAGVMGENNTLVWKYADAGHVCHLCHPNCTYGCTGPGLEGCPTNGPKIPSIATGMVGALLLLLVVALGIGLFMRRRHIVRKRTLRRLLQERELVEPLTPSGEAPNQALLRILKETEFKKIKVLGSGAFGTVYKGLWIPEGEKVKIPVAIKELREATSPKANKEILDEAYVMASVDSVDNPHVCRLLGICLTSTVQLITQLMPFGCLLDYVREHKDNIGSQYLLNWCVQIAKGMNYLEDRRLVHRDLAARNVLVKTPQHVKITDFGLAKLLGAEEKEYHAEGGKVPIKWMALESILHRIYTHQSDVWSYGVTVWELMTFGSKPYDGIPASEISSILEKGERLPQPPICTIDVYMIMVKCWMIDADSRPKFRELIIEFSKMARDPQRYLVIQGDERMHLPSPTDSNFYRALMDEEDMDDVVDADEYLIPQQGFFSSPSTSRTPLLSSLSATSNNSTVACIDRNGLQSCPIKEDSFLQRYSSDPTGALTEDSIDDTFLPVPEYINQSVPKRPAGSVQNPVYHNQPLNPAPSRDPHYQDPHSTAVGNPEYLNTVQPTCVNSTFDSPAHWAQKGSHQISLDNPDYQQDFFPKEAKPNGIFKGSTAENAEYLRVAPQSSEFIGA

What is called pEC50 is the negative decadic logarithm of the EC50, by convention in mol/L. Read a high pEC50 as a low EC50. As for `C=CC(=O)N[C@H]1C[C@@H](Oc2cc3c(Nc4ccc(Cl)c(Cl)c4F)ncnc3cc2OC2COC2)C1` [Compound 104, N-((1s,3s)-3-((4-((3,4-dichloro-2-fluorophenyl)amino)-7-(oxetan-3-yloxy)quinazolin-6-yl)oxy)cyclobutyl)acrylamide], the pEC50 in assay [1] was at least 6.70; in assay [2], 6.00 to 6.70; in assay [3] it was at least 6.70; in assay [4], at least 6.70; in assay [5] it was 6.00 to 6.70; in assay [6] it was 6.00 to 6.70.
Turning to `C=CC(=O)N[C@H]1C[C@@H](Oc2cc3c(Nc4ccc(Cl)c(Cl)c4F)ncnc3cc2OCC)C1` [Compound 105, N-((1s,3s)-3-((4-((3,4-dichloro-2-fluorophenyl)amino)-7-ethoxyquinazolin-6-yl)oxy)cyclobutyl)acrylamide], the pEC50 in assay [1], in assay [2], in assay [3], in assay [4], in assay [5] and in assay [6] was at least 6.70 each time.
Consider `C=CC(=O)N1CCC(Oc2cc3c(NCc4cccc(Cl)c4)ncnc3cc2OC)CC1` [Compound 106, 1-(4-((4-((3-chlorobenzyl)amino)-7-methoxyquinazolin-6-yl)oxy)piperidin-1-yl)prop-2-en-1-one], for which the pEC50 in assay [1] was at least 6.70; in assay [2], 6.00 to 6.70; in assay [3], at least 6.70; in assay [4], at least 6.70; in assay [5], at least 6.70; in assay [6] it was at least 6.70.
As to `C=CC(=O)N1CCC(Oc2cc3c(OCc4cccc(Cl)c4)ncnc3cc2OC)CC1` [Compound 107, 1-(4-((4-((3-chlorobenzyl)oxy)-7-methoxyquinazolin-6-yl)oxy)piperidin-1-yl)prop-2-en-1-one], the pEC50 is at least 6.70 in assay [1]; 6.00 to 6.70 in assay [2]; 6.00 to 6.70 in assay [3]; 6.00 to 6.70 in assay [4]; 6.00 to 6.70 in assay [5]; below 6.00 in assay [6].
Regarding `C=CC(=O)N1CCC(Oc2cc3c(NCc4ccc(Cl)cc4)ncnc3cc2OC)CC1` [Compound 108, 1-(4-((4-((4-chlorobenzyl)amino)-7-methoxyquinazolin-6-yl)oxy)piperidin-1-yl)prop-2-en-1-one], the pEC50 in assay [1] was at least 6.70; in assay [2], below 6.00; in assay [3], below 6.00; in assay [4], 6.00 to 6.70; in assay [5], below 6.00; in assay [6], below 6.00.
Take `C=CC(=O)N1CCC(Oc2cc3c(NCc4ccc(Cl)cc4Cl)ncnc3cc2OC)CC1` [Compound 109, 1-(4-((4-((2,4-dichlorobenzyl)amino)-7-methoxyquinazolin-6-yl)oxy)piperidin-1-yl)prop-2-en-1-one]: the pEC50 in assay [1] is 6.00 to 6.70; in assay [2] it was below 6.00; in assay [3] it was below 6.00; in assay [4], below 6.00; in assay [5], below 6.00; in assay [6], below 6.00.
`C=CC(=O)N1CCC(Oc2cc3c(NCc4ccccc4Cl)ncnc3cc2OC)CC1` [Compound 110, 1-(4-((4-((2-chlorobenzyl)amino)-7-methoxyquinazolin-6-yl)oxy)piperidin-1-yl)prop-2-en-1-one]: the pEC50 in assay [1] is at least 6.70; in assay [2] it was 6.00 to 6.70; in assay [3] it was at least 6.70; in assay [4], at least 6.70; in assay [5], 6.00 to 6.70; in assay [6] it was at least 6.70.
Take `C=CC(=O)N1CCC(Oc2cc3c(NCc4cccc(F)c4)ncnc3cc2OC)CC1` [Compound 111, 1-(4-((4-((3-fluorobenzyl)amino)-7-methoxyquinazolin-6-yl)oxy)piperidin-1-yl)prop-2-en-1-one]: the pEC50 was at least 6.70 in assay [1]; 6.00 to 6.70 in assay [2]; at least 6.70 in assay [3]; at least 6.70 in assay [4]; 6.00 to 6.70 in assay [5]; at least 6.70 in assay [6].
Turning to `C=CC(=O)N1CCC(Oc2cc3c(NCc4ccccc4F)ncnc3cc2OC)CC1` [Compound 112, 1-(4-((4-((2-fluorobenzyl)amino)-7-methoxyquinazolin-6-yl)oxy)piperidin-1-yl)prop-2-en-1-one], the pEC50 in assay [1] was at least 6.70; in assay [2], 6.00 to 6.70; in assay [3], 6.00 to 6.70; in assay [4], 6.00 to 6.70; in assay [5] it was below 6.00; in assay [6], at least 6.70.
Regarding `C=CC(=O)N1CCC(Oc2cc3c(NCc4ccc(Cl)c(F)c4)ncnc3cc2OC)CC1` [Compound 113, 1-(4-((4-((4-chloro-3-fluorobenzyl)amino)-7-methoxyquinazolin-6-yl)oxy)piperidin-1-yl)prop-2-en-1-one], the pEC50 was at least 6.70 in assay [1]; below 6.00 in assay [2]; 6.00 to 6.70 in assay [3]; 6.00 to 6.70 in assay [4]; below 6.00 in assay [5]; at least 6.70 in assay [6].
On to `C=CC(=O)N1CCC(Oc2cc3c(NCc4ccc(F)c(Cl)c4)ncnc3cc2OC)CC1` [Compound 114, 1-(4-((4-((3-chloro-4-fluorobenzyl)amino)-7-methoxyquinazolin-6-yl)oxy)piperidin-1-yl)prop-2-en-1-one], for which the pEC50 in assay [1] is at least 6.70; in assay [2], at least 6.70; in assay [3] it was 6.00 to 6.70; in assay [4], 6.00 to 6.70; in assay [5], 6.00 to 6.70; in assay [6], at least 6.70.
For the compound `C=CC(=O)N1CCC(Oc2cc3c(NCc4ccc(Cl)c(Cl)c4)ncnc3cc2OC)CC1` [Compound 115, 1-(4-((4-((3,4-dichlorobenzyl)amino)-7-methoxyquinazolin-6-yl)oxy)piperidin-1-yl)prop-2-en-1-one], the pEC50 was at least 6.70 in assay [1]; 6.00 to 6.70 in assay [2]; below 6.00 in assay [3]; below 6.00 in assay [4]; below 6.00 in assay [5]; at least 6.70 in assay [6].
On to `C=CC(=O)N1CCC(Oc2cc3c(NCc4cccc(Cl)c4F)ncnc3cc2OC)CC1` [Compound 116, 1-(4-((4-((3-chloro-2-fluorobenzyl)amino)-7-methoxyquinazolin-6-yl)oxy)piperidin-1-yl)prop-2-en-1-one], for which the pEC50 in assay [1] is at least 6.70; in assay [2], 6.00 to 6.70; in assay [3] it was at least 6.70; in assay [4] it was at least 6.70; in assay [5], 6.00 to 6.70; in assay [6] it was at least 6.70.
On to `C=CC(=O)N1CCC(Oc2cc3c(NCc4cc(Cl)cc(Cl)c4)ncnc3cc2OC)CC1` [Compound 117, 1-(4-((4-((3,5-dichlorobenzyl)amino)-7-methoxyquinazolin-6-yl)oxy)piperidin-1-yl)prop-2-en-1-one], for which the pEC50 in assay [1] was 6.00 to 6.70; in assay [2], 6.00 to 6.70; in assay [3], below 6.00; in assay [4], below 6.00; in assay [5], below 6.00; in assay [6] it was below 6.00.
Consider `C=CC(=O)N1CCC(Oc2cc3c(NCc4cc(Cl)ccc4F)ncnc3cc2OC)CC1` [Compound 118, 1-(4-((4-((5-chloro-2-fluorobenzyl)amino)-7-methoxyquinazolin-6-yl)oxy)piperidin-1-yl)prop-2-en-1-one], for which the pEC50 was at least 6.70 in assay [1]; below 6.00 in assay [2]; below 6.00 in assay [3]; below 6.00 in assay [4]; below 6.00 in assay [5]; 6.00 to 6.70 in assay [6].
On to `C=CC(=O)N1CCC(Oc2cc3c(NCc4cc(Cl)ccc4Cl)ncnc3cc2OC)CC1` [Compound 119, 1-(4-((4-((2,5-dichlorobenzyl)amino)-7-methoxyquinazolin-6-yl)oxy)piperidin-1-yl)prop-2-en-1-one], for which the pEC50 in assay [1] was at least 6.70; in assay [2], below 6.00; in assay [3], below 6.00; in assay [4], below 6.00; in assay [5], below 6.00; in assay [6] it was below 6.00.
Consider `C=CC(=O)N1CCC(Oc2cc3c(NCc4cccc(Br)c4)ncnc3cc2OC)CC1` [Compound 120, 1-(4-((4-((3-bromobenzyl)amino)-7-methoxyquinazolin-6-yl)oxy)piperidin-1-yl)prop-2-en-1-one], for which the pEC50 in assay [1] was at least 6.70; in assay [2], 6.00 to 6.70; in assay [3], at least 6.70; in assay [4], at least 6.70; in assay [5], at least 6.70; in assay [6], 6.00 to 6.70.
